Source: the NIST ThermoML archive (doi:10.1021/acs.jced.6b00350)
Values joined by “and” are separate entries in the source; they are usually repeats but may differ in a detail not shown here. Equal values may be shown once.

Conditions: Liquid, Hot wire method

FC(F)CC(F)(F)F [1,1,1,3,3-pentafluoropropane]
Conditions | thermal conductivity
242.09 K, 15292 kPa | 0.1107 W/m/K
242.09 K, 33385 kPa | 0.1154 W/m/K
242.09 K, 46702 kPa | 0.1187 W/m/K
242.09 K, 46703 kPa | 0.1195 W/m/K
242.1 K, 15296 kPa | 0.1107 W/m/K
242.1 K, 21026 kPa | 0.1124 W/m/K
242.1 K, 21045 kPa | 0.1126 W/m/K
242.1 K, 33384 kPa | 0.1155 W/m/K
242.1 K, 53712 kPa | 0.1203 W/m/K
242.11 K, 9885 kPa | 0.1091 W/m/K
242.11 K, 9889 kPa | 0.1086 W/m/K
242.11 K, 26987 kPa | 0.1139 W/m/K
242.11 K, 39778 kPa | 0.1171 W/m/K
242.12 K, 26965 kPa | 0.1139 W/m/K
242.12 K, 39775 kPa | 0.1171 W/m/K
242.12 K, 53701 kPa | 0.1203 W/m/K
242.12 K, 61286 kPa | 0.1221 W/m/K
242.13 K, 61278 kPa | 0.1219 W/m/K
242.14 K, 68636 kPa | 0.1235 W/m/K
242.14 K, 68676 kPa | 0.1235 W/m/K
242.19 K, 312 kPa | 0.1058 W/m/K and 0.1064 W/m/K
242.19 K, 4998 kPa | 0.1075 W/m/K
242.19 K, 5009 kPa | 0.1078 W/m/K
242.51 K, 46692 kPa | 0.1189 W/m/K
242.52 K, 46700 kPa | 0.1191 W/m/K
242.54 K, 33390 kPa | 0.1155 W/m/K
242.54 K, 33403 kPa | 0.1154 W/m/K
242.54 K, 53700 kPa | 0.1204 W/m/K
242.54 K, 53711 kPa | 0.1205 W/m/K
242.54 K, 61277 kPa | 0.1221 W/m/K
242.55 K, 15291 kPa | 0.1107 W/m/K
242.55 K, 21035 kPa | 0.1123 W/m/K
242.55 K, 21038 kPa | 0.1121 W/m/K
242.55 K, 39775 kPa | 0.117 W/m/K
242.55 K, 39776 kPa | 0.1173 W/m/K
242.55 K, 61245 kPa | 0.122 W/m/K
242.55 K, 68688 kPa | 0.1238 W/m/K
242.56 K, 26980 kPa | 0.1136 W/m/K
242.56 K, 26983 kPa | 0.114 W/m/K
242.56 K, 68673 kPa | 0.1236 W/m/K
242.57 K, 9883 kPa | 0.109 W/m/K
242.58 K, 9889 kPa | 0.1092 W/m/K
242.65 K, 5012 kPa | 0.1074 W/m/K
242.66 K, 307 kPa | 0.1056 W/m/K
242.66 K, 5012 kPa | 0.1074 W/m/K
242.67 K, 311 kPa | 0.1059 W/m/K
242.99 K, 46699 kPa | 0.1186 W/m/K
242.99 K, 46703 kPa | 0.1187 W/m/K
242.99 K, 53703 kPa | 0.1204 W/m/K
242.99 K, 53705 kPa | 0.1205 W/m/K
243 K, 61280 kPa | 0.122 W/m/K
243.01 K, 33387 kPa | 0.1153 W/m/K
243.01 K, 61272 kPa | 0.122 W/m/K
243.01 K, 68624 kPa | 0.1235 W/m/K
243.01 K, 68665 kPa | 0.1235 W/m/K
243.02 K, 33391 kPa | 0.1157 W/m/K
243.02 K, 39783 kPa | 0.117 W/m/K
243.03 K, 39791 kPa | 0.1173 W/m/K
243.04 K, 15285 kPa | 0.1108 W/m/K
243.04 K, 21046 kPa | 0.1119 W/m/K
243.04 K, 26979 kPa | 0.1139 W/m/K
243.05 K, 21037 kPa | 0.1122 W/m/K
243.05 K, 26975 kPa | 0.1137 W/m/K
243.06 K, 15300 kPa | 0.1105 W/m/K
243.07 K, 9881 kPa | 0.1091 W/m/K
243.07 K, 9885 kPa | 0.1094 W/m/K
243.16 K, 5024 kPa | 0.1074 W/m/K
243.17 K, 305 kPa | 0.1059 W/m/K
243.17 K, 5015 kPa | 0.1075 W/m/K
243.18 K, 306 kPa | 0.1061 W/m/K
261.13 K, 36952 kPa | 0.1131 W/m/K
261.13 K, 36968 kPa | 0.1135 W/m/K
261.17 K, 4289 kPa | 0.1031 W/m/K
261.17 K, 4298 kPa | 0.1027 W/m/K
261.17 K, 8849 kPa | 0.103 W/m/K
261.19 K, 14126 kPa | 0.1062 W/m/K
261.2 K, 14118 kPa | 0.106 W/m/K
261.21 K, 254 kPa | 0.1005 W/m/K
261.21 K, 260 kPa | 0.1005 W/m/K
261.21 K, 25237 kPa | 0.1087 W/m/K
261.22 K, 25223 kPa | 0.1081 W/m/K
261.23 K, 31202 kPa | 0.1113 W/m/K
261.23 K, 31204 kPa | 0.1116 W/m/K
261.52 K, 43978 kPa | 0.1147 W/m/K
261.55 K, 51260 kPa | 0.1154 W/m/K
261.55 K, 51262 kPa | 0.1153 W/m/K
261.56 K, 8838 kPa | 0.1026 W/m/K
261.57 K, 8847 kPa | 0.1029 W/m/K
261.57 K, 58812 kPa | 0.1174 W/m/K
261.58 K, 14132 kPa | 0.1051 W/m/K
261.58 K, 58797 kPa | 0.1178 W/m/K
261.6 K, 25212 kPa | 0.1084 W/m/K
261.6 K, 31216 kPa | 0.1112 W/m/K
261.61 K, 256 kPa | 0.09949 W/m/K
261.61 K, 263 kPa | 0.09978 W/m/K
261.61 K, 19564 kPa | 0.1066 W/m/K
261.61 K, 68826 kPa | 0.1202 W/m/K
261.61 K, 68837 kPa | 0.1206 W/m/K
261.62 K, 19569 kPa | 0.107 W/m/K
261.63 K, 68933 kPa | 0.1198 W/m/K
261.64 K, 68930 kPa | 0.1197 W/m/K
261.9 K, 36964 kPa | 0.1125 W/m/K
261.92 K, 43962 kPa | 0.1136 W/m/K
261.93 K, 43919 kPa | 0.1146 W/m/K
261.94 K, 51257 kPa | 0.1157 W/m/K
261.95 K, 51262 kPa | 0.1157 W/m/K
261.96 K, 58819 kPa | 0.1174 W/m/K
261.96 K, 58829 kPa | 0.1179 W/m/K
261.99 K, 68802 kPa | 0.1199 W/m/K
261.99 K, 68824 kPa | 0.1198 W/m/K
262 K, 8855 kPa | 0.1037 W/m/K
262 K, 8858 kPa | 0.1032 W/m/K
262 K, 14134 kPa | 0.105 W/m/K
262.01 K, 4294 kPa | 0.1017 W/m/K
262.01 K, 4301 kPa | 0.1014 W/m/K
262.01 K, 14121 kPa | 0.1049 W/m/K
262.01 K, 25254 kPa | 0.1088 W/m/K
262.01 K, 25264 kPa | 0.1087 W/m/K
262.01 K, 31199 kPa | 0.1102 W/m/K and 0.1104 W/m/K
262.01 K, 68921 kPa | 0.1199 W/m/K
262.02 K, 68914 kPa | 0.1199 W/m/K
262.04 K, 19538 kPa | 0.1069 W/m/K
262.04 K, 19563 kPa | 0.1063 W/m/K
262.06 K, 260 kPa | 0.1002 W/m/K
262.06 K, 263 kPa | 0.1001 W/m/K
262.33 K, 36929 kPa | 0.1119 W/m/K
262.35 K, 36937 kPa | 0.1119 W/m/K
262.36 K, 43961 kPa | 0.1135 W/m/K
262.36 K, 43965 kPa | 0.1138 W/m/K
262.37 K, 51242 kPa | 0.1157 W/m/K
262.38 K, 51253 kPa | 0.1155 W/m/K
262.39 K, 58814 kPa | 0.1181 W/m/K
262.39 K, 58816 kPa | 0.1176 W/m/K
262.4 K, 68835 kPa | 0.1199 W/m/K
262.41 K, 68836 kPa | 0.1198 W/m/K
262.43 K, 68875 kPa | 0.1199 W/m/K
262.43 K, 68907 kPa | 0.1196 W/m/K
262.46 K, 8826 kPa | 0.1033 W/m/K
262.46 K, 25272 kPa | 0.1083 W/m/K
